Holding throughout (type): biochemical
One assay has as its target B-Raf(V599E) kinase (Homo sapiens, UniProt P15056, V600E). Kind of assay: B-Raf(V599E) kinase assay B1 (construct 1, MEK1 substrate, coupled spectrophotometric). How it is done: The test compounds were incubated with the reaction mixtureat 30° C. for 2 h. […] The reaction rate was calculated using the […] time frame. […] IC50 values were calculated from a series of percent inhibition values determined at a range of inhibitor concentrations using software routines as implemented in the GraphPad Prism software package.

In a further assay the target is T1, Abl kinase (Homo sapiens, UniProt P00519).
T1 sequence (P00519 229-512): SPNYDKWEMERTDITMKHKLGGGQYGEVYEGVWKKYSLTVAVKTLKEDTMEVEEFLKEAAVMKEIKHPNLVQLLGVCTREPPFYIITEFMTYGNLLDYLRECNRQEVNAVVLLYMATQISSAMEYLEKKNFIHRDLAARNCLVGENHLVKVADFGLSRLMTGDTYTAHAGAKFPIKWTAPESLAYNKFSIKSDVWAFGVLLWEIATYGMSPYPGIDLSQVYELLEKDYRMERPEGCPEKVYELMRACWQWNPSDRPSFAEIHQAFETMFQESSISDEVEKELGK
Description: Abl kinase assay A1 (pyruvate kinase/lactate dehydrogenase coupled, spectrophotometric). The following applies: Method A1; read-out: Abl Data (IC50). On the procedure: IC50 values were calculated from a series of percent inhibition values determined at a range of inhibitor concentrations using software routines as implemented in the GraphPad Prism software package.

The target in assay [1] is phosphorylated p-38-alpha kinase (Homo sapiens, UniProt Q16539). Description: P-38 alpha kinase assay P1 (coupled spectrophotometric, 2 h pre-incubation). The following applies: method P1 (2 h pre-incubation); read-out: P-38 Data.
Chain of phosphorylated p-38-alpha kinase (Q16539 1-360 isoform Q16539-2): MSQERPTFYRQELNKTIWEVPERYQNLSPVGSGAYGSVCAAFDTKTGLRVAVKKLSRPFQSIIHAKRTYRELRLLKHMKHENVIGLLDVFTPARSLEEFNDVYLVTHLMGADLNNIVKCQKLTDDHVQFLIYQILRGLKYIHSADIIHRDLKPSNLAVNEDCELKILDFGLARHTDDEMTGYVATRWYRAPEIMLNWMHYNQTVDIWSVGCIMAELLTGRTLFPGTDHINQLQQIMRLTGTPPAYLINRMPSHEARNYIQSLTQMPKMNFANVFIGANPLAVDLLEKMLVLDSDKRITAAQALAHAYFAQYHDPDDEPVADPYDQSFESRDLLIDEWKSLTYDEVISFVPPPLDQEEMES

Chain of B-Raf(V599E) kinase (P15056 with tags, fused parts or gaps V600E): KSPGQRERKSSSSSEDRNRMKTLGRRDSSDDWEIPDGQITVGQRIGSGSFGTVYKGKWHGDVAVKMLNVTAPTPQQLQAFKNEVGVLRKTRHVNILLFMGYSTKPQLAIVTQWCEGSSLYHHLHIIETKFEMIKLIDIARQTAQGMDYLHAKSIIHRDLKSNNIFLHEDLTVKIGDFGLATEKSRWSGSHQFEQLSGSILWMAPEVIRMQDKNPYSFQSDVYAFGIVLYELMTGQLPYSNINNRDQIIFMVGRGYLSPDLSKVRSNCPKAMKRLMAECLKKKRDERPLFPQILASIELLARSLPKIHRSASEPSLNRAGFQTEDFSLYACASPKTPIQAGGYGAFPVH

For `CC(C)(C)c1cc(NC(=O)Nc2cccc(Br)c2)n(-c2cccc(CN)c2)n1` [Example 41, 1-(1-[3-(aminomethyl)phenyl]-3-t-butyl-1H-pyrazol-5-yl)-3-(3-bromophenyl)urea], the IC50 turned out to be 89 nM against B-Raf(V599E) kinase and 3700 nM at Abl kinase.

Take `CC(C)(C)c1cc(NC(=O)Nc2cccc(Cl)c2Cl)n(-c2cccc(-c3cccnc3)c2)n1` [Example 276, 1-[5-t-butyl-2-(3-pyridin-3-yl-phenyl)-2H-pyrazol-3-yl]-3-(2,3-dichlorophenyl)urea]: the figures for the IC50 against B-Raf(V599E) kinase and on Abl kinase were 4.9 nM and 2300 nM, respectively.

For `Cc1ccc(NC(=O)Nc2cc(C(C)(C)C)nn2-c2ccc3c(c2)CCNC3)cc1Nc1ncccn1` [Example 142, 1-(3-t-butyl-1-(1,2,3,4-tetrahydro-isoquinolin-6-yl)-1H-pyrazol-5-yl)-3-(4-methyl-3-(pyrimidin-2-ylamino)phenyl)-urea], the values for the IC50 against B-Raf(V599E) kinase and on Abl kinase were 35 nM and 170 nM, respectively.

In the case of `CC(C)(C)c1cc(NC(=O)Nc2cccc(Cl)c2Cl)n(-c2cccc(CC(=O)NCCO)c2)n1` [Example 37, 1-(3-t-butyl-{1-[3-(2-hydroxyethylamino)-2-oxo-thyl]-phenyl}-1H-pyrazol-5-yl)-3-(2,3-dichlorophenyl)-urea], the values for the IC50 on B-Raf(V599E) kinase and on Abl kinase were 5.7 nM and 1400 nM, respectively.

For the molecule `CC(C)(C)c1cc(NC(=O)Nc2cc(F)cc(F)c2)n(-c2cc(CO)c3ccccc3c2)n1` [Example 59, 1-(3-t-butyl-1-(4-(hydroxymethyl)naphthalen-2-yl)-1H-pyrazol-5-yl)-3-(3,5-difluorophenyl)urea], the IC50 against B-Raf(V599E) kinase is 8.7 nM; at Abl kinase it was 79 nM.

As for `CC(C)(C)c1cc(NC(=O)Nc2cc(F)ccc2F)n(-c2cc(CC(N)=O)c3ccccc3c2)n1` [Example 87, 1-(1-(4-(2-amino-2-oxoethyl)naphthalen-2-yl)-3-t-butyl-1H-pyrazol-5-yl)-3-(2,5-difluorophenyl)urea], the IC50 at Abl kinase is 73 nM.

`CC(C)(C)c1cc(NC(=O)Nc2cccc(Cl)c2Cl)n(-c2cc(CC(=O)O)c3ccccc3c2)n1` [Example 77, 2-(3-(3-t-butyl-5-(3-(2,3-dichlorophenyl)-ureido)-1H-pyrazol-1-yl)naphthalen-1-yl)acetic acid]: the IC50 at B-Raf(V599E) kinase worked out at 3.9 nM; on Abl kinase it was 260 nM.

Consider `CC(C)(C)c1cc(NC(=O)Nc2cccc(C#N)c2)n(-c2ccc3c(c2)CCN3)n1` [Example 111, 1-(3-t-butyl-1-(indolin-5-yl)-1H-pyrazol-5-yl)-3-(3-cyanophenyl)urea], for which the IC50 was 97 nM at B-Raf(V599E) kinase and 620 nM on Abl kinase.

In the case of `CC(C)(C)c1cc(NC(=O)Nc2cccc(C(F)(F)F)c2)n(-c2cccc(C#N)c2)n1` [Example 11], at Abl kinase, the IC50 was found to be 5100 nM.

For the molecule `CCOC(=O)c1cc(-n2nc(C(C)(C)C)cc2NC(=O)Nc2cccc(Cl)c2Cl)cc2ccccc12` [Example 58, 3-{3-t-butyl-5-[3-(2,3-dichlorophenyl)ureido]-pyrazol-1-yl}naphthalene-1-carboxylic acid ethyl ester], the IC50 on Abl kinase stood at 4700 nM.

As for `CC(C)(C)c1cc(NC(=O)Nc2cccc(Cl)c2Cl)n(-c2ccc3c(c2)N(S(C)(=O)=O)CC3)n1` [Example 113, 1-(3-t-butyl-1-(1-(methylsulfonyl)indolin-6-yl)-1H-pyrazol-5-yl)-3-(2,3-dichlorophenyl)urea], the IC50 against B-Raf(V599E) kinase was 3.3 nM; on Abl kinase, 190 nM.

Regarding `CC(C)(C)c1cc(NC(=O)Nc2cccc(Cl)c2Cl)n(-c2ccc3c(c2)C(N)CC3)n1` (centres unmarked) [Example 105, 1-[2-(3-amino-indan-5-yl)-5-t-butyl-2H-pyrazol-3-yl]-3-(2,3-dichlorophenyl)urea], the IC50 against B-Raf(V599E) kinase is 12 nM; on Abl kinase it was 240 nM.

In the case of `CC(C)(C)c1cc(NC(=O)Nc2cccc(F)c2F)n(-c2ccc3c(c2)CCNC3)n1` [Example 144, 1-(3-t-butyl-1-(1,2,3,4-tetrahydroiso-quinolin-6-yl)-1H-pyrazol-5-yl)-3-(2,3-difluorophenyl)-urea], the IC50 was found to be 9.6 nM against B-Raf(V599E) kinase and 200 nM at Abl kinase.

For the molecule `CC(C)(C)c1cc(NC(=O)Nc2cc(F)c(F)c(F)c2)n(-c2cc(CC(=O)NCC(O)CO)c3ccccc3c2)n1` (centres unmarked) [Example 98], the IC50 at Abl kinase was determined as 34 nM.

On to `CC(C)(C)c1cc(NC(=O)Nc2ccc(F)c(F)c2F)n(-c2cc(CC(N)=O)c3ccccc3c2)n1` [Example 80, 1-(1-(4-(2-amino-2-oxoethyl)naphthalen-2-yl)-3-t-butyl-1H-pyrazol-5-yl)-3-(2,3,4-trifluorophenyl)urea], for which the IC50 on B-Raf(V599E) kinase was found to be 4.5 nM; on Abl kinase, 79 nM.

As for `CC(C)(C)c1cc(NC(=O)Nc2cccc(Cl)c2Cl)n(-c2cccc(CC(=O)NC[C@H](O)CO)c2)n1` [Example 36, 1-(3-t-butyl-1-(3-(2-((S)-2,3-dihydroxypropylamino)-2-oxoethyl)phenyl)-1H-pyrazol-5-yl)-3-(2,3-dichloro-phenyl)urea], the IC50 on Abl kinase is 720 nM.

Regarding `CC(C)(C)c1cc(NC(=O)Nc2ccc(Cl)cc2)n(-c2ccc3c(c2)CN(C(=O)NS(C)(=O)=O)CC3)n1` [Example 128, N-(7-{3-t-butyl-5-[3-(4-chloro-phenyl)ureido]pyrazol-1-yl}-3,4-dihydro-1H-isoquinoline-2-carbonyl)methane-sulfonamide], the IC50 at B-Raf(V599E) kinase was found to be 67 nM; on Abl kinase, 7500 nM.

For `COc1cccc(-n2nc(C(C)(C)C)cc2NC(=O)Nc2cccc(C#N)c2)c1` [Example 17, 1-(3-t-butyl-1-(3-methoxyphenyl)-1H-pyrazol-5-yl)-3-(3-cyanophenyl)urea], the IC50 was found to be 89 nM against B-Raf(V599E) kinase and 370 nM at Abl kinase.

In the case of `CC(C)(C)c1cc(NC(=O)Nc2cc(F)c(F)c(F)c2)n(-c2cc(CO)c3ccccc3c2)n1` [Example 66, 1-(3-t-butyl-1-(4-(hydroxymethyl)naphthalen-2-yl)-1H-pyrazol-5-yl)-3-(3,4,5-trifluorophenyl)urea], the IC50 against B-Raf(V599E) kinase was 8.5 nM; on Abl kinase, 71 nM.

For `CC(C)(C)c1cc(NC(=O)Nc2cc(F)c(F)cc2F)n(-c2cc(CN)c3ccccc3c2)n1` [Example 71, 1-(1-(4-(aminomethyl)naphthalen-2-yl)-3-t-butyl-1H-pyrazol-5-yl)-3-(2,4,5-trifluorophenyl)urea], the IC50 stood at 4.1 nM against B-Raf(V599E) kinase and 90 nM on Abl kinase.

With `CC(C)(C)c1cc(NC(=O)Nc2ccc(F)c(F)c2F)n(-c2cccc(CC(=O)O)c2)n1` [Example 356, 2-(3-(3-t-butyl-5-(3-(2,3,4-trifluorophenyl)-ureido)-1H-pyrazol-1-yl)phenyl)acetic acid], the IC50 in assay [1] was determined as 72 nM; at B-Raf(V599E) kinase, 14 nM.

For `CC(=O)N1CCc2cc(-n3nc(C(C)(C)C)cc3NC(=O)Nc3cccc(Cl)c3Cl)ccc21` [Example 107, 1-(1-(1-acetylindolin-5-yl)-3-t-butyl-1H-pyrazol-5-yl)-3-(2,3-dichlorophenyl)urea], the IC50 was determined as 2.1 nM on B-Raf(V599E) kinase and 180 nM at Abl kinase.

Regarding `COc1cccc(NC(=O)Nc2cc(C(C)(C)C)nn2-c2cccc(C#N)c2)c1` [Example 10], on Abl kinase, the IC50 is 4300 nM.

For `CO[C@@H]1CCN(C(=O)Cc2cccc(-n3nc(C(C)(C)C)cc3NC(=O)Nc3cccc(Cl)c3Cl)c2)C1` [Example 444, 1-(3-t-butyl-1-(3-(2-((R)-3-methoxypyrrolidin-1-yl)-2-oxoethyl)phenyl)-1H-pyrazol-5-yl)-3-(2,3-dichlorophenyl)urea], the IC50 in assay [1] was determined as 63 nM; against B-Raf(V599E) kinase, 20 nM.

For `CC(C)(C)c1ncc(NC(=O)Nc2cccc(Cl)c2Cl)c(-c2ccccc2)n1` [Example 279, 1-(2-t-butyl-4-phenylpyrimidin-5-yl)-3-(2,3-dichlorophenyl)urea], the IC50 in assay [1] was 1050 nM; against B-Raf(V599E) kinase, 697 nM.

For `CC(C)(C)c1cc(NC(=O)Nc2ccc(C#N)cc2)n(-c2cc(CC(N)=O)c3ccccc3c2)n1` [Example 79, 1-(1-(4-(2-amino-2-oxoethyl)naphthalen-2-yl)-3-t-butyl-1H-pyrazol-5-yl)-3-(4-cyanophenyl)urea], the IC50 at Abl kinase amounted to 180 nM.

With `CC(C)(C)c1cc(NC(=O)Nc2cccc(C#N)c2)n(-c2ccc3c(c2)CCNCC3)n1` [Example 167, 1-(3-t-butyl-1-(2,3,4,5-tetrahydro-1H-benzo[d]azepin-7-yl)-1H-pyrazol-5-yl)-3-(3-cyanophenyl)urea], the IC50 on Abl kinase came to 310 nM.

`CC(C)(C)c1cc(NC(=O)Nc2ccccc2)n(-c2cc(CC(=O)O)c3ccccc3c2)n1` [Example 301, {3-[3-t-butyl-5-(3-phenylureido)pyrazol-1-yl]naphthalen-1-yl}acetic acid]: the figures for the IC50 (in assay [1]; against B-Raf(V599E) kinase) were 160 nM and 10 nM, respectively.

In the case of `CC(C)(C)c1cc(NC(=O)Nc2cccc(C#N)c2)n(-c2ccc3c(c2)CNCC3)n1` [Example 125, 1-(3-t-butyl-1-(1,2,3,4-tetrahydroisoquinolin-7-yl)-1H-pyrazol-5-yl)-3-(3-cyanophenyl)urea], on Abl kinase, the IC50 worked out at 180 nM.

In the case of `CC(C)(C)c1cc(NC(=O)Nc2cc(F)ccc2F)n(-c2cc(CC(=O)NC(CO)CO)c3ccccc3c2)n1` [Example 99, 1-(3-t-butyl-1-(4-(2-(1,3-dihydroxypropan-2-ylamino)-2-oxoethyl)naphthalen-2-yl)-1H-pyrazol-5-yl)-3-(2,5-difluorophenyl)urea], the IC50 on Abl kinase worked out at 38 nM.

The record behind these values is patent US8163756B2 (priority 2004, dated 2012).
